Experimental data published in patent publication US9670203B2 (BeiGene, LTD., priority 2013, dated 2017).
Read-outs that look alike come from different tables or passages of the source.

Columns and labels:
[1] = target: B-Raf (V600E) (Homo sapiens (Human), UniProt P15056, V600E); test: Raf IC50 assay, time-resolved fluorescence energy transfer, B-Raf (V600E); assay type: biochemical; conditions: 0.1 mM ATP; read-out: IC50 (nM) B_Raf^V600E
Description: The enzyme was incubated with the compounds at room temperature for 60 minutes and the reactions were initiated by the addition of ATP and GST-MEK1. After reaction at room temperature for 60 minutes, an equal volume of stop/detection solution was added according to the manufacture's instruction (CisBio Bioassays). […] The IC50 for each compound was derived from fitting the dose-response % inhibition data to the four-parameter logistic model by Graphpad Prism software.

[2] = tested on: A375; test: Anti-proliferative activity EC50 assay (CellTiter-Glo) in A375; assay type: cell-based; conditions: Homo sapiens, A-375, 72 h; 3-day exposure; read-out: Cell Proliferation EC50 (nM) A375
Description: (§1) The growth-inhibitory activity of compounds in A375 and p61-A375, was determined using CellTiter-Glo luminescent cell viability assay (Promega). The 2,000 cells were seeded per well of a 96-well plate to ensure logarithmic growth could occur over the 3 days treatment period. Cells were left to attach for 16 hours, cells were treated in duplicate with a 10-point dilution series. Following a 3-day exposure to compounds disclosed herein, a volume of CellTiter-Glo reagent equal to the volume of cell culture medium present in each well was added. Mixture was mixed on an orbital shaker for 2 minutes to allow cell lysis, followed by 10 minutes incubation at room temperature to allow stabilization of luminescent signal, which corresponded to quantitation of ATP and thus the quantitation of metabolically active cells. Luminescent signal was measured using Pherastar FS reader (BMG Labtech).
(§2) EC50 values for growth inhibition were calculated by fitting dose-dependent data to the four-parameter logistic model using GraphPad Prism software.

[3] = target: wild type B-Raf (Homo sapiens (Human), UniProt P15056); test: WT B-Raf IC50 assay, time-resolved fluorescence energy transfer; assay type: biochemical
wild type B-Raf, sequence (P15056 whole entry): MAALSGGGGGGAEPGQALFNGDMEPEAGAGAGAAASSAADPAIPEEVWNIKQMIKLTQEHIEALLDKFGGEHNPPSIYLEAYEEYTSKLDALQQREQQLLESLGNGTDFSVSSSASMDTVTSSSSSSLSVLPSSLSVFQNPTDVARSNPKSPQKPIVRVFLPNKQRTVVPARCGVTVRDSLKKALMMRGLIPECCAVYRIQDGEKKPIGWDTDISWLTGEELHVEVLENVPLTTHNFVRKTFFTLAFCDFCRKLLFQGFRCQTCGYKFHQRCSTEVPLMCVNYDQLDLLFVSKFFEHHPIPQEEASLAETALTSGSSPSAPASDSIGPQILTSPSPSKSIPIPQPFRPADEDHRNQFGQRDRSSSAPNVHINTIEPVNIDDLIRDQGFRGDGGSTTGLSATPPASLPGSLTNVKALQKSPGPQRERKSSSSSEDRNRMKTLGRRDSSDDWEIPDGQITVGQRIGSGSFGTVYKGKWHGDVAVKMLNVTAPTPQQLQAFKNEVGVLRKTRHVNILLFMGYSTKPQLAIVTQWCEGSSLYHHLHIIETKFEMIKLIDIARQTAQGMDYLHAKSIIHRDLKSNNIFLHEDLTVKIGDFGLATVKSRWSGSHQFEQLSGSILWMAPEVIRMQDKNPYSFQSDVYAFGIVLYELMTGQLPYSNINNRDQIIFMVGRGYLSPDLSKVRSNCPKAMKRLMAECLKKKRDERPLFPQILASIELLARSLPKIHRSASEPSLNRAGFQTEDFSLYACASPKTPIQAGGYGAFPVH
Description: The IC50 for each compound was calculated by non linear regression by Graphpad Prism software.

[4] = target: C-Raf (Y340D/Y341D) (Homo sapiens (Human), UniProt P04049, Y340D/Y341D); test: Raf IC50 assay, time-resolved fluorescence energy transfer, C-Raf (Y340D/Y341D); assay type: biochemical; conditions: 0.1 mM ATP
C-Raf (Y340D/Y341D), sequence (P04049 whole entry Y340D/Y341D): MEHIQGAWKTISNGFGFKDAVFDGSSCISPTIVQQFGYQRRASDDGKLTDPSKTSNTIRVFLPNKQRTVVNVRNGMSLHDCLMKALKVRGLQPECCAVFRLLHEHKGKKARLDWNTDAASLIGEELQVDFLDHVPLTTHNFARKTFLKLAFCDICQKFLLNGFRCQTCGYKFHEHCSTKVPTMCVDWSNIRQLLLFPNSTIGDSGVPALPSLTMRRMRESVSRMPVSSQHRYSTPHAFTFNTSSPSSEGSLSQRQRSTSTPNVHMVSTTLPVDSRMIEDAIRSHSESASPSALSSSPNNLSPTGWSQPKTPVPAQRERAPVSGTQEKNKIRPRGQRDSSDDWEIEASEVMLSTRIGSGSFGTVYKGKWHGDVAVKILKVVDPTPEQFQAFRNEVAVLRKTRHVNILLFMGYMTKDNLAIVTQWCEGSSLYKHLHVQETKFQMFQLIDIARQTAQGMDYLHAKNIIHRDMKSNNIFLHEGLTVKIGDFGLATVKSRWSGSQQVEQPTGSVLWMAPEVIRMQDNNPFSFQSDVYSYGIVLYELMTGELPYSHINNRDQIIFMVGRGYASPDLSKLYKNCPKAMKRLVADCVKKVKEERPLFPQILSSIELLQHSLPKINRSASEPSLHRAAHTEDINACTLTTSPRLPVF
Description: The assay was carried out in reactions (10 μL) containing 0.0625 nM B-Raf or 0.5 nM C-Raf, 25 mM Tris pH7.4, 10 mM MgCl2, 0.5 mM EGTA, 0.5 mM Na3VO4, 5 mM beta-glycerophosphate, 0.01% Triton X-100, 2.5 mM DTT, 0.1% BSA, 0.1 mM ATP, 13.7 nM GST-tagged MEK1 (Full-length protein with K97R mutation, recombinant protein purified from bacterial expression system) and 0-5 μM compounds disclosed herein (final concentration of 1% DMSO). The enzyme was incubated with the compounds at room temperature for 60 minutes and the reactions were initiated by the addition of ATP and GST-MEK1. After reaction at room temperature for 60 minutes, an equal volume of stop/detection solution was added according to the manufacture's instruction (CisBio Bioassays). The stop/detection solution contained Eu^3+ cryptate-conjugated anti-phospho MEK1/2 (Ser217/221) rabbit polyclonal antibody and d2-conjugated anti-GST mouse monoclonal antibody in buffer containing 25 mM Tris pH7.4, 400 mM KF, 50 mM EDTA, 0.01% BSA and 0.01% Triton X-100. Plates were sealed and incubated at room temperature for 2 hours, and the TR-FRET signals (ratio of fluorescence emission at 665 nm over emission at 620 nm with excitation at 337 nm wavelength) were recorded on a PHERAstar FS plate reader (BMG Labtech). Phosphorylation of MEK1 led to the binding of anti-phospho-MEK1/2 antibody to GST-MEK1 protein that place fluorescent donor (Eu^3+ crypate) in close proximity to the accepter d2 on the anti-GST antibody, thus resulting in a high degree of fluorescence resonance energy transfer from the donor fluorophore (at 620 nm) to the acceptor fluorophore (at 665 nm). […] The IC50 for each compound was derived from fitting the dose-response % inhibition data to the four-parameter logistic model by Graphpad Prism software.

[5] = tested on: p61-A375; test: Anti-proliferative activity EC50 assay (CellTiter-Glo) in p61-A375; assay type: cell-based; conditions: 72 h; 3-day exposure; read-out: Cell Proliferation EC50 (nM) p61-A375
Description: (§3) To express p61 in mammalian cells, cDNA encoding the p61 (Poulikakos et al., Nature. 2011 Nov. 23; 480(7377):387-90) was synthesized by Genscript and cloned into pLVX-IRES-Puro vector (Clontech). The cDNA was a modified form of p61 in which sequencing encoding the flag-epitope had been inserted to the C-terminus, resulting in the expression of flag-tagged forms of protein. A375 cells were stably transfected with the Flag-p61 expressing plasmid and selected with DMEM containing […] puromycin (Invitrogen). Cells were cloned by limiting dilution in a 96-wells plate and the clones screened by western blot analysis using a monoclonal antibody directed against the flag-epitope.
as §1, §2

[6] = tested on: HeLa (pERK); test: ERK phosphorylation inhibition IC50 assay in HeLa; assay type: cell-based; conditions: Homo sapiens, 1 hour compound treatment
Description: (§4) Growth medium was then replaced with 100 μL of serum free DMEM, cells were then treated with a 10-point titration of compounds disclosed herein. After 1 hour compound treatment, 50 μL of lysis buffer (Cisbio) were added to each well and incubated at room temperature with shaking for 30 minutes. A total of 16 μL of cell lysate from each well of a 96-well plate was transferred to a 384-well small volume white plate. Lysate from each well was incubated with 2 μL of Eu^3+-cryptate (donor) labeled anti-ERK antibody (Cisbio) and 2 μL of D2 (acceptor) labeled anti-phospho-ERK antibody (Cisbio) for 2 hours at room temperature. When donor and acceptor are in close proximity, excitation of the donor with laser triggers a Fluorescence Resonance Energy Transfer (FRET) towards the acceptor, which in turn fluoresces at 655 nm wavelength. Fluorescence values were measured using a BMG reader.
(§5) IC50 values for ERK inhibition were calculated by fitting dose-dependent data to the four-parameter logistic model using GraphPad Prism software.

[7] = tested on: p61-A375 (pERK); test: ERK phosphorylation inhibition IC50 assay in p61-A375; assay type: cell-based; conditions: 1 hour compound treatment
Description: as §3, §4, §5

[8] = tested on: Calu-6 (pERK); test: ERK phosphorylation inhibition IC50 assay in Calu-6; assay type: cell-based; conditions: Homo sapiens, 1 hour compound treatment
Description: as §4, §5

[9] = 2.5 mM ATP, read-out: IC50 (nM) B-Raf^WT 2.5 mM ATP
[10] = Km ATP (2.9 μM ATP), read-out: IC50 (nM) B-Raf^WT Km ATP

B-Raf (V600E), sequence (P15056 whole entry V600E): as the sequence (P15056 whole entry) above, with V600E counted along it

| SMILES | IC50 [1] | EC50 [2] | IC50 [3, 9] | IC50 [3, 10] | IC50 [4] | EC50 [5] | IC50 [6] | IC50 [7] | IC50 [8] |
| --- | --- | --- | --- | --- | --- | --- | --- | --- | --- |
| COc1cccc(NC(=O)N[C@@H]2[C@H]3Oc4ccc(Oc5ccnc6c5CCC(=O)N6)cc4[C@@H]23)c1Cl [Compound 1.6] | 1.9 nM | 229 nM | 11 nM | 4.5 nM | 0.33 nM |  |  |  |  |
| COc1cc(NC(=O)N[C@@H]2[C@H]3Oc4ccc(Oc5ccnc6c5CCC(=O)N6)cc4[C@@H]23)ccn1 [Compound 1.75, 1-(2-methoxypyridin-4-yl)-3-((1S,1aS,6bS)-5-((7-oxo-5,6,7,8-tetrahydro-1,8-naphthyridin-4-yl)oxy)-1a,6b-dihydro-1H-cyclopropa[b]benzofuran-1-yl)urea] | 2.2 nM | 405 nM |  | 2.4 nM | 0.27 nM |  |  |  |  |
| O=C1CCc2c(Oc3ccc4c(c3)[C@H]3[C@H](NC(=O)Nc5cccc(F)c5F)[C@H]3O4)ccnc2N1 [Compound 1.42] | 0.94 nM | 178 nM |  | 1.5 nM | 0.24 nM |  |  |  |  |
| O=C1CCc2c(Oc3ccc4c(c3)[C@H]3[C@H](NC(=O)Nc5cc(F)cc(C(F)(F)F)c5)[C@H]3O4)ccnc2N1 [Compound 1.11] | 5.5 nM | 147 nM | 110 nM | 30 nM | 1.8 nM |  |  |  |  |
| O=C1CCc2c(Oc3ccc4c(c3)[C@H]3[C@H](NC(=O)Nc5cc(F)cc(F)c5)[C@H]3O4)ccnc2N1 [Compound 1.23] | 1.8 nM | 109 nM | 12 nM | 3.7 nM | 0.3 nM | 479 nM | 189 nM | 253 nM | 101 nM |
| O=C1CCc2c(Oc3ccc4c(c3)[C@H]3[C@H](NC(=O)NC5CCCCCC5)[C@H]3O4)ccnc2N1 [Compound 1.52] | 1.4 nM | 47.7 nM |  | 1.7 nM | 0.25 nM |  | 5430 nM | 173 nM | 411 nM |
| O=C1CCc2c(Oc3ccc4c(c3)[C@H]3[C@H](NC(=O)Nc5ccc(F)cc5F)[C@H]3O4)ccnc2N1 [Compound 1.35] | 0.59 nM | 143 nM | 4.1 nM | 1 nM | 0.25 nM | 1130 nM | 610 nM | 314 nM | 75 nM |
| O=C1CCc2c(Oc3ccc4c(c3)[C@H]3[C@H](NC(=O)Nc5cccc(F)c5)[C@H]3O4)ccnc2N1 [Compound 1.22] | 1.3 nM | 87 nM | 4.2 nM | 1.7 nM | 0.18 nM |  |  |  |  |
| O=C1CCc2c(Oc3ccc4c(c3)[C@H]3[C@H](NC(=O)NC5CCCCC5)[C@H]3O4)ccnc2N1 [Compound 1.66] | 2.3 nM | 101 nM |  | 2.3 nM | 0.25 nM |  |  |  |  |
| O=C1CCc2c(Oc3ccc4c(c3)[C@H]3[C@H](NC(=O)Nc5ccc(F)c(F)c5)[C@H]3O4)ccnc2N1 [Compound 1.45] | 1.1 nM | 32 nM | 6.7 nM | 2.7 nM | 0.3 nM | 645 nM | 265 nM | 325 nM | 84 nM |
| O=C1CCc2c(Oc3ccc4c(c3)[C@H]3[C@H](NC(=O)Nc5ccc(F)c(C(F)(F)F)c5)[C@H]3O4)ccnc2N1 [Compound 1.32] | 7.7 nM | 55 nM | 58 nM | 17 nM | 1.2 nM | 527 nM | 536 nM | 433 nM | 301 nM |
| O=C1CCc2c(Oc3ccc4c(c3)[C@H]3[C@H](NC(=O)Nc5cccc(C(F)(F)F)c5)[C@H]3O4)ccnc2N1 [Compound 1.1, 1-((1S,1aS,6bS)-5-((7-oxo-5,6,7,8-tetrahydro-1,8-naphthyridin-4-yl)oxy)-1a,6b-dihydro-1H-cyclopropa[b]benzofuran-1-yl)-3-(3-(trifluoromethyl)phenyl)urea] | 8.3 nM | 109 nM | 43 nM | 13 nM | 1.6 nM |  |  |  |  |
| O=C1CCc2c(Oc3ccc4c(c3)[C@H]3[C@H](NC(=O)Nc5c(F)cccc5F)[C@H]3O4)ccnc2N1 [Compound 1.44] | 1.3 nM | 702 nM |  | 1.9 nM | 0.21 nM |  |  |  |  |
| O=C1CCc2c(Oc3ccc4c(c3)[C@H]3[C@H](NC(=O)Nc5ccccc5F)[C@H]3O4)ccnc2N1 [Compound 1.21] | 1.1 nM | 128 nM | 2.5 nM | 0.87 nM | 0.066 nM |  |  |  |  |
| CCCS(=O)(=O)Nc1ccc(F)c(C(=O)c2c[nH]c3ncc(-c4ccc(Cl)cc4)cc23)c1F [Vemurafenib, reference compound] |  | 178 nM |  |  |  | > 10000 nM | 5820 nM | > 10000 nM | > 10000 nM |
| CCN1CCN(Cc2ccc(NC(=O)N[C@@H]3[C@H]4Oc5ccc(Oc6ccnc7c6CCC(=O)N7)cc5[C@@H]34)cc2C(F)(F)F)CC1 [Compound 1.73, 1-(4-((4-ethylpiperazin-1-yl)methyl)-3-(trifluoromethyl)phenyl)-3-((1S,1aS,6bS)-5-((7-oxo-5,6,7,8-tetrahydro-1,8-naphthyridin-4-yl)oxy)-1a,6b-dihydro-1H-cyclopropa[b]benzofuran-1-yl)urea] | 13 nM | 1330 nM |  | 13 nM | 0.84 nM |  |  |  |  |
| O=C1CCc2c(Oc3ccc4c(c3)[C@H]3[C@H](NC(=O)Nc5cc(F)c(F)cc5F)[C@H]3O4)ccnc2N1 [Compound 1.49] | 1.2 nM | 17 nM | 7.9 nM | 2.5 nM | 0.19 nM | 639 nM | 498 nM | 153 nM | 112 nM |
| O=C1CCc2c(Oc3ccc4c(c3)[C@H]3[C@H](NC(=O)Nc5ccc(Cl)c(C(F)(F)F)c5)[C@H]3O4)ccnc2N1 [Compound 1.25] | 27 nM | 25 nM |  | 33 nM | 2.3 nM |  |  |  |  |
| O=C1CCc2c(Oc3ccc4c(c3)[C@H]3[C@H](NC(=O)Nc5ccc(F)c(F)c5F)[C@H]3O4)ccnc2N1 [Compound 1.46] | 0.78 nM | 109 nM | 6 nM | 1.7 nM | 0.22 nM |  |  |  |  |
| O=C1CCc2c(Oc3ccc4c(c3)[C@H]3[C@H](NC(=O)Nc5cc(F)cc(F)c5F)[C@H]3O4)ccnc2N1 [Compound 1.53] | 2.9 nM | 77 nM |  |  |  | 1320 nM |  |  |  |
| O=C1CCc2c(Oc3ccc4c(c3)[C@H]3[C@H](NC(=O)Nc5cc(F)ccc5F)[C@H]3O4)ccnc2N1 [Compound 1.43] | 1.2 nM | 96 nM | 5.9 nM | 2.1 nM | 0.26 nM |  |  |  |  |
| O=C1CCc2c(Oc3ccc4c(c3)[C@H]3[C@H](NC(=O)Nc5ccc(Cl)c(Cl)c5)[C@H]3O4)ccnc2N1 [Compound 1.28] | 5.5 nM | 40 nM | 49 nM | 16 nM | 0.77 nM |  |  |  |  |
| O=C1CCc2c(Oc3ccc4c(c3)[C@H]3[C@H](NC(=O)Nc5ccc(F)cc5)[C@H]3O4)ccnc2N1 [Compound 1.41] | 0.8 nM | 65 nM |  | 0.57 nM | 0.15 nM |  |  |  |  |
| Cc1cc(NC(=O)N[C@@H]2[C@H]3Oc4ccc(Oc5ccnc6c5CCC(=O)N6)cc4[C@@H]23)ccc1F [Compound 1.24] | 1.5 nM | 25 nM | 7.7 nM | 2.7 nM | 0.37 nM |  |  |  |  |
| O=C1CCc2c(Oc3ccc4c(c3)[C@H]3[C@H](NC(=O)Nc5cccc(C(F)(F)F)c5F)[C@H]3O4)ccnc2N1 [Compound 1.12] | 4.7 nM | 106 nM | 86 nM | 23 nM | 1.1 nM |  |  |  |  |
